From paper PMC10518658, “Dual activity of indolin-2-ones containing an arylidene motif: DNA and BSA interaction” (RSC Advances, 2023)

Target: T1, bovine serum albumin (BSA) (Bos taurus, UniProt P02769)
T1 construct: gene ALB
Assay: fluorescence emission titration (BSA quenching, excitation […] nm), double-log plot; value is Ka, n = […]
Format: binding
Settings: read-out: fluorescence emission titration (BSA quenching, excitation 287 nm), double-log p (converted)

T1 sequence (P02769 25-607): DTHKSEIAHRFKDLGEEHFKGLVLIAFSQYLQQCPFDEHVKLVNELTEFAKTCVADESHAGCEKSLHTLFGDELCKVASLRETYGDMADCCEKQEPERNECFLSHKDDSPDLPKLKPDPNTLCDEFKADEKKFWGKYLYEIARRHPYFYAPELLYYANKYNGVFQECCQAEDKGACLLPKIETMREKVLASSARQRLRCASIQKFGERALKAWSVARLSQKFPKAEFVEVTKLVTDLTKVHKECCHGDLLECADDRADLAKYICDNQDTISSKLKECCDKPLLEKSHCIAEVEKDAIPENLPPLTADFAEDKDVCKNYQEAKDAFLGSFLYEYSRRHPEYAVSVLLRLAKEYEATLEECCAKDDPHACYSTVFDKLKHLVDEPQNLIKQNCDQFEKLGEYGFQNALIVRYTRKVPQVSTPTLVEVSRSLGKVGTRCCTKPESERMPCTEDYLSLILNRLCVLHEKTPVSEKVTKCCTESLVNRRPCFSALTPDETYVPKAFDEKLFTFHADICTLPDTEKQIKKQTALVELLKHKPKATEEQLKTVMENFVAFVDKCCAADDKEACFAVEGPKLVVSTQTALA

SMILES: C=CCN1C(=O)C(=CC(=O)c2cccc(N)c2)c2ccccc21 [4d, 1-Allyl-3-(2-(3-aminophenyl)-2-oxoethylidene)indolin-2-one]
- Kd: 0.164 µM
